The record followed here is patent publication US10238113B2, “Method for protecting plants from stress and senescence” (BEN-GURION UNIVERSITY OF THE NEGEV RESEARCH AND DEVELOPMENT …, priority 2008, dated 2019).

In assay [1] the test system is leaf discs cut from Col and Atxdh mutants rosette leaves. As to the kind of experiment: Leaf discs treated with purine catabolites under dark-induced stress, remaining chlorophyll. In kind it is in vivo, Arabidopsis thaliana. The settings on record: for protection from chlorophyll degradation: 0.1 mM, applied 2 h after 48 h dark treatment, +/- allopurinol, Col and Atxdh mutants. As to the method: (§1) FIG. 8a: xanthine (1 mM) in the presence or absence of allopurinol (1 mM, +/−Allo), was applied for 48 h to leaf discs placed in the dark and photographed 24 h after being transferred to 16 h light/8 h dark regime (left upper panel). Remaining chlorophyll, xanthine, allantoin and allantoate were determined in leaf discs sampled at the beginning of the experiment (light) or after 72 h (as described above) without xanthine (dark). FIG. 8b: allantoin or allantoate (0.1 mM) in the presence or absence of allopurinol (1 mm, +/−Allo) was applied to leaf discs for 2 h in the dark after keeping the discs in the dark for 48 h. Discs were photographed 24 h after being transferred to 16 h light/8 h dark regime (left upper panel). Leaf discs were washed twice before sampling for xanthine, allantoin and allantoate determination (right and bottom panels). Bars show mean±SEM (n=16).
Cell death was visualized in leaves sampled from dark stressed and control unstressed plants, by lactophenol-trypan blue staining followed by destaining in saturated chloral hydrate (Koch E. and Slusarenko A. 1990 Plant Cell 2, 437-445). Total chlorophyll content was measured in extracts of the fully expanded leaves as described before (Brychkova et al., 2007, ibid). The values for remaining chlorophyll content in leaf discs were determined as the amount of chlorophyll per disc divided by the amount of chlorophyll per untreated control and expressed as a percentage. The severity of leaf damage after dark stress was as follows: 1, no damage; 2, <30%; 3, 30-50%; 4, >50% of the leaf area damaged. The average leaf damage was then multiplied by the total number of damaged leaves to determine the damage level. Means±SEM for each treatment are presented.
The dark-induced loss of chlorophyll and the accelerated cell death during recovery may be due to the accumulation of excess oxypurines (FIG. 5a) or to the lack of a protective environment provided by ureides (FIGS. 5b and 5c) or both. To examine this directly, leaf discs cut from Col and Atxdh mutants rosette leaves were treated with xanthine for 48 h in the dark and were sampled after 24 h in the light. […] The observations indicate that ureides may protect chlorophyll from degradation during dark treatment and the recovery period. To elucidate the role of allantoin and allantoate directly, leaf discs were treated with 0.1 mM allantoin or allantoate. […] Importantly, the protection by the ureides was afforded in spite of the significant accumulation of xanthine in allopurinol-treated Col plants and Atxdh mutants (FIG. 8b).

The next assay concerns Col wild type plants. The assay can be described thus: Xanthine determination in allopurinol-treated leaves/leaf discs during dark stress. In kind it is in vivo, Arabidopsis thaliana. The settings on record: allopurinol applied to wild type plants. The procedure:
as §1
Ureides were extracted from leaves with 80% ethanol and determined according to Vogels G. D. and Van Der Drift C. (1970 Anal Biochem 33, 143-157) using allantoic acid and allantoin as references. Six samples were analyzed and averaged for each data points. […] Hypoxanthine/xanthine were determined by high performance liquid chromatography (HPLC) using a 100×2.1 mm ID, ODS-Hypersil (5 μm) column. […] The hypoxanthine and xanthine were detected using standards retention time and UV absorption spectra ratio at 249 nm and 267 nm. […]

The next assay relates to tomato leaf discs. As to the kind of experiment: Allantoin application to tomato leaf discs, chlorophyll degradation. In kind it is in vivo. The settings on record: 0.1 mM and 0.5 mM allantoin; discs 2 days dark then 2 days light.
In another assay the test system is Parsley leaf discs. As to the kind of experiment: Allantoin application on senescence in parsley leaf discs exposed to dark stress, chlorophyll content. In kind it is in vivo. The procedure:
FIG. 14 relates to the influence of allantoin application on senescence in parsley leaf discs exposed to dark stress. Parsley leaf discs were kept for 2 days in the light and then transferred to the dark for additional 2 days with or without the addition of 0 to 10 mM allantoin. CL—control undetached leaves in the light.
Reference is also made to FIG. 14 showing that allantoin application prevents leaf spoilage in Parsley. Parsley leaf discs were kept for 2 days in the light and then for 2 days in the dark with or without the addition of 0 to 10 mM allantoin. Undetached leaves kept in the light served as control (CL). The influence of allantoin application on senescence in parsley was examined by measuring the chlorophyll content relative to the content in the control undeteched leaves.

The subject of assay [2] is leaf discs of Col and Ri plants. The assay can be described thus: DAB-H2O2 staining of leaf discs treated with allantoin or allantoate. In kind it is in vivo, Arabidopsis thaliana. The settings on record: 0.1 mM for 2 h after 24 h dark. The procedure:
(§2) FIGS. 9a-9c show reactive oxygen species (ROS) accumulation in the presence of allantoin and allantoate in Arabidopsis wild-type (Col) and xdh1 RNA interference (Ri) lines. FIG. 9a left panel: leaf discs removed from Col plants placed for 24 h in the dark in the presence or absence of allantoin or allantoate (0.1 mM) and then washed and treated with H2O2 (0, 20, 50 mM) for an additional 6 h in the dark. Right panel: remaining chlorophyll determined 24 h after the disc were transferred to a 16 h light/8 h dark regime. Bars show mean±SEM (n=16). […] Total H2O2 relative production (right insert) was quantified in leave discs kept in the dark for 24 h and then treated with allantoin or allantoate for additional 2 h in the dark, using DAB staining Results are from two independent experiments. Error bars indicate SE (n=16). The lower case letters (a, b) indicate P<0.001 for the differences within treatment between ecotypes. […] Leaf discs were treated and analyzed as in FIG. 9b above. Total relative superoxide production was quantified in leaf discs from 2 independent experiments. […]
(§3) Nitroblue tetrazolium (NBT) O2^− staining of leaves was performed essentially according to Jabs T. et al. (1996 Science 273, 1853-1856) and Fryer M. J. et al. (2002 J Exp Bot 53, 1249-1254). […] NBT and DAB stained leaves and leaf discs were quantified using NIH Image Software (Version 1.6). […]

Assay [3] has the same test system. As to the kind of experiment: NBT-O2- staining of leaf discs treated with allantoin or allantoate. Type of assay: in vivo, Arabidopsis thaliana. The settings on record: 0.1 mM for 2 h after 24 h dark; Col lines. The procedure:
as §2, §3

Turning to `Oc1ncnc2[nH]ncc12` [allopurinol, reference compound], in assay [1] (allopurinol 1 mM in the presence of 1 mM xanthine, wild type and mutant Ri lines), the “effect on xanthine-caused reduction in chlorophyll” value was “exacerbated”. For the same compound, the xanthine accumulation result with Col wild type plants is listed as “led to xanthine accumulation”.

Turning to `NC(=O)NC1NC(=O)NC1=O` (stereo not drawn) [allantoin], the “protection from chlorophyll degradation” value in assay [1] was “protected the treated leaf discs from chlorophyll degradation”. Moreover, in the assay with tomato leaf discs, the chlorophyll degradation entry is recorded as “delayed the chlorophyll degradation”. Besides, in the assay on Parsley leaf discs (0.1-0.5 mM allantoin, 2 days light then 2 days dark), the “prevention of chlorophyll loss (chlorophyll content relative to control undetached leaves)” value was “particularly effective in preventing the chlorophyll loss”. Further, the “protection of leaves from chlorophyll degradation and yellowing” value with Parsley leaf discs (0.1-10 mM allantoin, summary of parsley and tomato leaf disc results) was “protects leaves from chlorophyll degradation and yellowing”. Further, the “reduction in DAB staining intensity (H2O2)” value in assay [2] came to 2 fold. Further, in assay [3], the “NBT staining (superoxide)” value is “significantly reduced staining”.

As to `NC(=O)NC(NC(N)=O)C(=O)O` [allantoate], the “protection from chlorophyll degradation” value in assay [1] is recorded as “protected the treated leaf discs from chlorophyll degradation”. For the same compound, the “reduction in DAB staining intensity (H2O2)” value in assay [2] was 2 fold. Further, the “NBT staining (superoxide)” value in assay [3] was “significantly reduced staining”.

On to `O=c1[nH]c(=O)c2[nH]cnc2[nH]1` [xanthine], for which the effect on chlorophyll entry in assay [1] (1 mM xanthine, 48 h in the dark, sampled after 24 h in the light, Col and Ri leaf discs) is reported as “caused a reduction in chlorophyll”.
